Where “and” joins values, the source holds several entries; their conditions need not be identical. Equal values may be shown once.
How the values were obtained:
[1] = tested on: PI3K pathway (Akt phosphorylation on Thr308) in HeLa cells; test: Western blot of PI3K pathway; type: cell-based, human; conditions: compared with the controls
Method: To evaluate whether compound 17 inhibits the PI3K pathway, the Akt phosphorylation level on Thr308 was determined.
(§1) HeLa cells were cultured in a six-well plate in the presence of compound 17 for 48 h. Samples were prepared by lysing PBS-washed cells with RIPA buffer (Beyotime, Haimen, China) consisting of 1% Nonidet P-40, 0.5% sodium deoxycholate, 0.1% SDS, and 50 mM Tris-HCl, pH 7.4, supplemented with NaF, NaVO4, EDTA and a protease inhibitor cocktail (Roche). Proteins were subjected to SDS-PAGE gel electrophoresis and transferred onto a polyvinylidene difluoride membrane (Hybond-P; GE Healthcare Life Sciences, Piscataway, NJ). Immunoblotting was performed using rabbit monoclonal antibodies (Cell Signaling Technology; Danvers, MA) against p70S6K1 phosphorylated on Thr 389 (#9234) and total p70S6K1 (#2708), 4E-BP1 phosphorylated on Thr 37 (#2855) and total 4E-BP1 (#9452), Akt phosphorylated on Thr 308 (#4056) or Ser 473 (#4060) and total Akt (#4685), cleaved caspase-3 (#9664), PARP (#9532), and β-actin (#3700). […] The densitometry of each band was quantified by FluorChem 8000 (AlphaInnotech, San Leandro, CA).

AKT3 (PKB gamma) = AKT3 (PKB gamma) (Homo sapiens, UniProt Q9Y243); test: SelectScreen kinase profiling; type: biochemical; conditions: mean ± SD of triplicate
Source text: (§2) To characterize the kinase selectivity of compound 17, we profiled its ability to bind to a panel of 24 structurally related kinases using the SelectScreen Kinase Profiling Service (Life Technologies Corporation, Madison, WI).

AMPK A1/B1/G1 = AMPK A1/B1/G1 (Homo sapiens, UniProt Q13131); test: SelectScreen kinase profiling; type: biochemical; conditions: mean ± SD of triplicate
Source text: as §2

FRAP1 (mTOR) = FRAP1 (mTOR) (Homo sapiens, UniProt P42345); test: SelectScreen kinase profiling; type: biochemical; conditions: mean ± SD of triplicate
Source text: as §2

PIK3C2B (PI3K-C2 beta) = PIK3C2B (PI3K-C2 beta) (Homo sapiens, UniProt O00750); test: SelectScreen kinase profiling; type: biochemical; conditions: mean ± SD of triplicate
Source text: as §2

PRKCD (PKC delta) = PRKCD (PKC delta) (Homo sapiens, UniProt Q05655); test: SelectScreen kinase profiling; type: biochemical; conditions: mean ± SD of triplicate
Source text: as §2

PRKCB2 (PKC beta II) = PRKCB2 (PKC beta II) (Homo sapiens, UniProt P05771); test: SelectScreen kinase profiling; type: biochemical; conditions: mean ± SD of triplicate
Source text: as §2

MARK1 (MARK) = MARK1 (MARK) (Homo sapiens, UniProt Q9P0L2); test: SelectScreen kinase profiling; type: biochemical; conditions: mean ± SD of triplicate
Source text: as §2

PIK3CG (p110 gamma) = PIK3CG (p110 gamma) (Homo sapiens, UniProt P48736); test: SelectScreen kinase profiling; type: biochemical; conditions: mean ± SD of triplicate
Source text: as §2

CDK2/cyclin A = CDK2/cyclin A (Homo sapiens, UniProt P24941); test: SelectScreen kinase profiling; type: biochemical; conditions: mean ± SD of triplicate
Source text: as §2

IKBKB (IKK beta) = IKBKB (IKK beta) (Homo sapiens, UniProt O14920); test: SelectScreen kinase profiling; type: biochemical; conditions: mean ± SD of triplicate
Source text: as §2

[2] = tested on: mTORC1 (phosphorylation of p70S6K and 4E-BP1) in HeLa cells; test: Western blot of mTORC1 activity; type: cell-based, human; conditions: 2.47 and 5.48 μM
Method: In vitro mTOR kinase assay confirmed that 17 did inhibit mTOR kinase activity (Table 1). The mTOR pathway is frequently activated in human cancers (e.g., HeLa and MCF-7). To assure compound 17 inhibits the mTOR pathway inside the cell, western blotting was employed to check the activity of mTORC1 (Complex 1) and mTORC2 (Complex 2). HeLa cell line was selected for western blot analysis after treatment with compound 17 at 2.47 and 5.48 μM; detailed results are shown in Fig. 8.
mTORC1 activity was evaluated by determining the phosphorylation level of its targets, p70S6K and 4E-BP1, in the HeLa cell line. […] Quantitative of the phosphorylation levels of p70SK6 and 4E-BP1 are […] with the concentration of 17 (Fig. 8).
HeLa cells were cultured in a six-well plate in the presence of compound 17 for 48 h. Samples were prepared by lysing PBS-washed cells with RIPA buffer (Beyotime, Haimen, China) consisting of 1% Nonidet P-40, 0.5% sodium deoxycholate, 0.1% SDS, and 50 mM Tris-HCl, pH 7.4, supplemented with NaF, NaVO4, EDTA and a protease inhibitor cocktail (Roche). Proteins were subjected to SDS-PAGE gel electrophoresis and transferred onto a polyvinylidene difluoride membrane (Hybond-P; GE Healthcare Life Sciences, Piscataway, NJ). […] The densitometry of each band was quantified by FluorChem 8000 (AlphaInnotech, San Leandro, CA).

[3] = tested on: mTORC2 (Akt phosphorylation on Ser473) in HeLa cells; test: Western blot of mTORC2 activity; type: cell-based, human
Method: Accordingly, we checked mTORC2 activity by measuring Akt phosphorylation levels on Ser473 in HeLa cells. […] In other words, the mechanism of HeLa cell death induced by 17 was apoptosis, and induction was achieved by targeting both mTORC1 and mTORC2 simultaneously.
as §1

[4] = molecular target: T1, human recombinant mTOR kinase (Homo sapiens, UniProt P42345); test: In vitro mTOR kinase assay (K-LISA ELISA, p70S6K-GST substrate); type: biochemical
T1 construct: a purified recombinant mTOR fragment (amino acids 1360-2549, CBA104-1KIT from Calbiochem); purchased Calbiochem CBA104-1KIT
Method: The mTOR kinase inhibitory activities of the 41 final virtual hits were determined using an ELISA-based activity assays that utilize a p70S6K-GST fusion protein as a specific mTOR substrate (see the Experimental Section for details). For the initial screening, all the activities were measured at a concentration of 10 μM.
mTOR activity was evaluated using a purified recombinant mTOR fragment (amino acids 1360-2549, CBA104-1KIT from Calbiochem). The K-LISA^TM mTOR activity kit is an ELISA-based activity assay for detection of phosphorylation of a p70S6K-GST fusion protein (a specific mTOR substrate) in the presence of ATP. The assay was optimized for use with mTOR as described in the Calbiochem protocol. The assay takes place in 96-well plates and can be divided into two phases: an mTOR kinase reaction phase and phosphorylated substrate detection phase.
In the kinase reaction phase, the following components were mixed in the same well: 5 μL of a solution containing 5 μg/mL mTOR substrate (recombinant p70S6K-GST fusion protein) in Tris-buffered saline (1 L TBS: sodium chloride 8.8 g, Tris Base 2.4 g, HCl 13 mL, Tween-20 10 ml, ddH2O), 5 μL ATP solution containing 20 mM ATP diluted in kinase assay buffer (pH 7.4, 0.01% Tween 20, 1 mM EDTA, 10 mM MgCl2, 1 mM DTT), […] of human recombinant mTOR kinase at the optimal concentration (80 ng/well) diluted in kinase assay buffer, and 5 μL of serial dilutions of inhibitors diluted in DMSO and kinase assay buffer. For each inhibitor concentration, the assay was run in triplicate. The final reaction volume was 100 μL per well, and samples incubated for 30 min at room temperature.
The kinase reaction was stopped by adding 10 μL kinase stop solution to each well. The phosphorylated substrate was detected using Anti-p70S6K-pT389 antibody, followed by detection with HRP-Antibody Conjugate and TMB Substrate. Then, ELISA stop solution was added to each well to stop the reaction, and relative mTOR inhibition activity was determined by reading the absorbance at dual wavelengths of 450/540 nm.

Chain of PRKCD (PKC delta) (Q05655 whole entry): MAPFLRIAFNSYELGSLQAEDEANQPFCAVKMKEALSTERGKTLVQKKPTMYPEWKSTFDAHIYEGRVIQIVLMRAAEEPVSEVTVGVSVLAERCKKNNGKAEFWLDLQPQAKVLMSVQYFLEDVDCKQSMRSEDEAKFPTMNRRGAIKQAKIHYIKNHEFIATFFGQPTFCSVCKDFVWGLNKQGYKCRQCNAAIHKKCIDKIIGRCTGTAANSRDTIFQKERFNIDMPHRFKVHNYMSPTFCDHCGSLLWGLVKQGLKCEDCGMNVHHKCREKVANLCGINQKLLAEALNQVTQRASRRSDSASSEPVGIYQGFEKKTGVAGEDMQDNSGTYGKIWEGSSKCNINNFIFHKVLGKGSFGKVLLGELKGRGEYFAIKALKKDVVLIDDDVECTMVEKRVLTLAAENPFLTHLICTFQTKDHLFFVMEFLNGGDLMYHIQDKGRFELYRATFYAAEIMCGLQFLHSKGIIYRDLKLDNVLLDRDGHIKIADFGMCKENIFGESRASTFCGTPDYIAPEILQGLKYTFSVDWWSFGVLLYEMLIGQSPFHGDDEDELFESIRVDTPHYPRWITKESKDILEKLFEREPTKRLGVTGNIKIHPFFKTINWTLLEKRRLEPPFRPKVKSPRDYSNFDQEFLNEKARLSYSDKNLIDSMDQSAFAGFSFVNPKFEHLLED
Chain of IKBKB (IKK beta) (O14920 whole entry): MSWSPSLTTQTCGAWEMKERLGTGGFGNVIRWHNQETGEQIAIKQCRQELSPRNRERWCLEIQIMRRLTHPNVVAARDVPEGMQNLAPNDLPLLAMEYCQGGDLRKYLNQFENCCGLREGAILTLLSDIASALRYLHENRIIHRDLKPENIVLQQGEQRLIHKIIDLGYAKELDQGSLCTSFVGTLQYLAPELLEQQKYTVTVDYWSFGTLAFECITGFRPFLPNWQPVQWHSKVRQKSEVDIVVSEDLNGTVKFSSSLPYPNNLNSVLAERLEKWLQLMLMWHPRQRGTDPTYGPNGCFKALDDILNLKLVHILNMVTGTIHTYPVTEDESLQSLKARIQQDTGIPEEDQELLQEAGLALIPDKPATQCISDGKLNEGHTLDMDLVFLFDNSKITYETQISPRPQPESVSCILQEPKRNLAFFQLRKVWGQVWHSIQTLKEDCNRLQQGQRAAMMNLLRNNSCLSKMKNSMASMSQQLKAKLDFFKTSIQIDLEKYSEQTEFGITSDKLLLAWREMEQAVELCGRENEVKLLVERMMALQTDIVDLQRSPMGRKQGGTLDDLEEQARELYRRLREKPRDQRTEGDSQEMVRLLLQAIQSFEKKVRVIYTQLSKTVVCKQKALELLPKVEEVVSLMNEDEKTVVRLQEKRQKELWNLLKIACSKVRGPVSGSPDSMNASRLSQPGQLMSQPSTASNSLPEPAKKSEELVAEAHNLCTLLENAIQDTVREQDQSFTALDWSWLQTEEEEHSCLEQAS
Chain of AMPK A1/B1/G1 (Q13131 whole entry): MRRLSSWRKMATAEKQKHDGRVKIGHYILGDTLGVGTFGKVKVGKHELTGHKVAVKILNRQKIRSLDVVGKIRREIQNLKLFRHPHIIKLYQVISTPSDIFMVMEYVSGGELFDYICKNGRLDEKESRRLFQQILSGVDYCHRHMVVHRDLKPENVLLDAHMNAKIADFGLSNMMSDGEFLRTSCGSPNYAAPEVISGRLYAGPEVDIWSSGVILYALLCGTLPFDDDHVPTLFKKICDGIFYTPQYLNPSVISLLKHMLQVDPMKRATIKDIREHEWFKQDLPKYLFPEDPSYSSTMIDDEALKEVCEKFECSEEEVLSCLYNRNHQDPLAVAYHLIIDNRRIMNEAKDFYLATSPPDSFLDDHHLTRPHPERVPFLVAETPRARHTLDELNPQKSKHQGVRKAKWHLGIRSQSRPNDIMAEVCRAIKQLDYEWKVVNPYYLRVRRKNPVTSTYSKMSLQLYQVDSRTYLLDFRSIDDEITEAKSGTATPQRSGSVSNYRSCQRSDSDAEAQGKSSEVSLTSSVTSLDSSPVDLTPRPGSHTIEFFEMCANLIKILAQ
Chain of AMPK A1/B1/G1 (Q9Y478 whole entry partner): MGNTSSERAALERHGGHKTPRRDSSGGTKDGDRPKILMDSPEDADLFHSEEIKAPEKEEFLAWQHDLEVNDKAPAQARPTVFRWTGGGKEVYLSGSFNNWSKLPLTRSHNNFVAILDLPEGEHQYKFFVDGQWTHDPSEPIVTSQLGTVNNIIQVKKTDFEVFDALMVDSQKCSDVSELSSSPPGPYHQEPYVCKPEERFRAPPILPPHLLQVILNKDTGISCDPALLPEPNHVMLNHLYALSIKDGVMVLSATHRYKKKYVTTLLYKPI
Chain of AMPK A1/B1/G1 (P54619 whole entry partner): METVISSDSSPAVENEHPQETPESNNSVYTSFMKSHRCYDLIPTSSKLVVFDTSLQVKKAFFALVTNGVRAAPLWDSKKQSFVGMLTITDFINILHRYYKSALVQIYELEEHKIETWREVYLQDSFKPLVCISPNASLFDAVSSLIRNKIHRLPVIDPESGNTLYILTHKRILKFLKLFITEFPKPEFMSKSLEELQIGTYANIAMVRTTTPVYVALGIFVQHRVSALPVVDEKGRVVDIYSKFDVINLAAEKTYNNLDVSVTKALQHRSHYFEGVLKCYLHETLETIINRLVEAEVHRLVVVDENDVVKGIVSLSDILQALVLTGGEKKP
Chain of PIK3C2B (PI3K-C2 beta) (O00750 whole entry): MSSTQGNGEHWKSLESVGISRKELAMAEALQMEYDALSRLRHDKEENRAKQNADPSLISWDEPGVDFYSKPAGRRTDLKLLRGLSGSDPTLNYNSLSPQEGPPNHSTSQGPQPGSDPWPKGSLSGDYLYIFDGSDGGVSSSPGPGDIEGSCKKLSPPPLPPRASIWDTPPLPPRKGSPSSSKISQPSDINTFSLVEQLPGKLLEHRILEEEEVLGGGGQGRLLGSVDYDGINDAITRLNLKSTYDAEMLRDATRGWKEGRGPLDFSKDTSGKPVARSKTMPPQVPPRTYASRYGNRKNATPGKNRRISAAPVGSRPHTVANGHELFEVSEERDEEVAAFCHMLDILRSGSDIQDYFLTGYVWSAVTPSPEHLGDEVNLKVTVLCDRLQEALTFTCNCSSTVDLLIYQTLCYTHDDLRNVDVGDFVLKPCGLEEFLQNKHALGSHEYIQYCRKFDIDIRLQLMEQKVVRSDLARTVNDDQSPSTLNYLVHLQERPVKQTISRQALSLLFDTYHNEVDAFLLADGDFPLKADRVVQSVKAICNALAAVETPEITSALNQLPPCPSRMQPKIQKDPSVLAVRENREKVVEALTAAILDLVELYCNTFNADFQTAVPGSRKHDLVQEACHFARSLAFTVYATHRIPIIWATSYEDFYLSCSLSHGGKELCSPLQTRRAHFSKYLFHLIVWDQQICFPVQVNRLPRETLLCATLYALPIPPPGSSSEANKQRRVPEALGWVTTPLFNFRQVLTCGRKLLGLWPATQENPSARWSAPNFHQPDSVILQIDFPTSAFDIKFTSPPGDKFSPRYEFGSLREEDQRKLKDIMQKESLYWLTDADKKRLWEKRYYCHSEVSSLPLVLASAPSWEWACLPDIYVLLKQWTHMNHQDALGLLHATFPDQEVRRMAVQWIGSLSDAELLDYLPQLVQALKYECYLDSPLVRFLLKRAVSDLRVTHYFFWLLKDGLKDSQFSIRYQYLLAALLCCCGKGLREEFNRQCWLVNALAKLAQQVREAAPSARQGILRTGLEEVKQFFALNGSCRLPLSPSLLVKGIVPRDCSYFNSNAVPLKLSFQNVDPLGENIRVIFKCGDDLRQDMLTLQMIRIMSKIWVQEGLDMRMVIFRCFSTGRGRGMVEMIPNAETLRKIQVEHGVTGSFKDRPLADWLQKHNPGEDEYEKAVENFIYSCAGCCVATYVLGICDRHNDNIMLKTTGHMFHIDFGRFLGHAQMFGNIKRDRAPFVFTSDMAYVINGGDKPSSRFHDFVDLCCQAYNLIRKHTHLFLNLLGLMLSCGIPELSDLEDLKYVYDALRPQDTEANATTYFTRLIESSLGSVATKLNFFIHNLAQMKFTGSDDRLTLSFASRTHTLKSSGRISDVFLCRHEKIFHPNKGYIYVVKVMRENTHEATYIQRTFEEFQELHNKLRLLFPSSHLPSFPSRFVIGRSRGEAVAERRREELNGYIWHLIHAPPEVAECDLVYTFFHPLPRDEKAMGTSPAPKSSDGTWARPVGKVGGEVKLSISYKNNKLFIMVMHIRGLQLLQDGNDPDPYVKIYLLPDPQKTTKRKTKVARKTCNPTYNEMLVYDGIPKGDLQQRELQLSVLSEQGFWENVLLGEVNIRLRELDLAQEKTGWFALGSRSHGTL
Chain of PRKCB2 (PKC beta II) (P05771 1-673 isoform P05771-2): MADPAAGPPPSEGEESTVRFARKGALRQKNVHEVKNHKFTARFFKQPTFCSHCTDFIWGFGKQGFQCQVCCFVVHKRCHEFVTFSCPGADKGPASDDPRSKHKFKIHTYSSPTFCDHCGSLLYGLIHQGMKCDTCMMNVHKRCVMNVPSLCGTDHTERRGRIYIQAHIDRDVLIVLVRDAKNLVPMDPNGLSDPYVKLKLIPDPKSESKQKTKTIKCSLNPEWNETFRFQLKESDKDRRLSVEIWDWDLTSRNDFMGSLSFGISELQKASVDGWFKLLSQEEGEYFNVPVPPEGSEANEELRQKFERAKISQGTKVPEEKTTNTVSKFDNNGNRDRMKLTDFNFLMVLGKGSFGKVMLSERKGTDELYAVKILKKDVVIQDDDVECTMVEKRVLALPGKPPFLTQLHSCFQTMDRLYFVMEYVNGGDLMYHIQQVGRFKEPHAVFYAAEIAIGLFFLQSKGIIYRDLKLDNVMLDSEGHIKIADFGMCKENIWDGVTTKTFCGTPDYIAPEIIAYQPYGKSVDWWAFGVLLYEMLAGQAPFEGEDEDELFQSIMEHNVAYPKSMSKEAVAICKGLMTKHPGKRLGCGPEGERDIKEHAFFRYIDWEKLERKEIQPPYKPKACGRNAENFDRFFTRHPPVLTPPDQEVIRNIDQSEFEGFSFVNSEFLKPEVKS

inhibition at 10 µM (AKT3 (PKB gamma)): 11.7 ± 0.37%
inhibition at 10 µM (AMPK A1/B1/G1): 17 ± 3.47%
inhibition at 10 µM (FRAP1 (mTOR)): 16.9 ± 4.99%
inhibition at 10 µM (PIK3C2B (PI3K-C2 beta)): 39.3 ± 7.29%
inhibition at 10 µM (PRKCD (PKC delta)): -10.5 ± 9.55%
inhibition at 10 µM (PRKCB2 (PKC beta II)): 17.7 ± 4.98%
inhibition at 10 µM (MARK1 (MARK)): -12.2 ± 4.24%
inhibition at 10 µM (PIK3CG (p110 gamma)): 40.9 ± 1.19%
inhibition at 10 µM (CDK2/cyclin A): -1.54 ± 1.35%
inhibition at 10 µM (IKBKB (IKK beta)): 11.7 ± 1.62%
inhibition at 10 µM ([4]; 10 μM, triplicate measurements): 61%
IC50 ([4]; mean ± SD of triplicate measurements): < 10 µM and 7.59 µM
Compound: Nc1nn2c(nc(N)c3c(N)n[nH]c32)c1/N=N/c1ccccc1 [Compound 17]
P-Akt Thr308 [1]: not affected
phosphorylation level of 4E-BP1 [2]: suppressed
phosphorylation level of p70S6K [2]: suppressed
P-Akt Ser473 [3]: can reduce P-Akt Ser473
